# From the C3SDB collision cross section collection
# Details: instrument: DT, single field, calibrated with Agilent tune mix (Agilent)
collision cross section (N2) ([M-H]-),collision cross section (N2) ([M+H]+),SMILES,further results
188.5 Å²,–,CCCCCCCC/C=C\CCCCCCCCCCCC(=O)O [Erucic acid],–
–,247.3 Å²,Cc1cc2nc3c(=O)[nH]c(=O)nc-3n(C[C@H](O)[C@H](O)[C@H](O)COP(=O)(O)OP(=O)(O)OC[C@H]3O[C@@H](n4cnc5c(N)ncnc54)[C@H](O)[C@@H]3O)c2cc1C [Flavin adenine dinucleotide],–
196.26 Å²,196.9 Å²,Nc1nc(=O)c2c([nH]1)NCC(CNc1ccc(C(=O)N[C@@H](CCC(=O)O)C(=O)O)cc1)N2C=O (some centres undefined) [Folinic acid],–
252.39 Å²,260.5 Å²,CC(C)(COP(=O)(O)OP(=O)(O)OC[C@H]1O[C@@H](n2cnc3c(N)ncnc32)[C@H](O)[C@@H]1OP(=O)(O)O)[C@@H](O)C(=O)NCCC(=O)NCCSC(=O)CCCC(=O)O [Glutaryl-CoA],–
–,178.9 Å²,Nc1nc(=O)c2ncn([C@@H]3O[C@H](COP(=O)(O)O)[C@@H](O)[C@H]3O)c2[nH]1 [Guanosine 5'-monophosphate],–
170.78 Å²,–,CCCCCCCCCCCCCCCCC(=O)O [Heptadecanoic acid],–
144.64 Å²,–,CCCCCC(=O)NCC(=O)O [Hexanoylglycine],–
141.71 Å²,–,C=C(C)CCOP(=O)(O)OP(=O)(O)O [Isopentenyl pyrophosphate],–
–,159.8 Å²,N[C@@H](CCCCN[C@@H](CCC(=O)O)C(=O)O)C(=O)O [L-Saccharopine],collision cross section (N2) ([M+2Na-3H]-): 163.17 Å²
156.42 Å²,–,CC(=O)N[C@H]1C(OP(=O)(O)O)O[C@H](CO)[C@@H](O)[C@@H]1O (some centres undefined) [N-Acetylglucosamine 1-phosphate],collision cross section (N2) ([M+Na]+): 166.6 Å²
248.67 Å²,–,CCCCCCCCCCCCC/C=C/[C@@H](O)[C@H](CO)NC(=O)CCCCCCCCCCCCCCCCC [N-Stearoylsphingosine],collision cross section (N2) ([M+Na]+): 256.4 Å²
196.32 Å²,–,CCCCCCCC/C=C\CCCCCCCCCCCCCC(=O)O [Nervonic acid],collision cross section (N2) ([M+H-H2O]+): 196.8 Å²
–,226.7 Å²,NC(=O)c1ccc[n+]([C@@H]2O[C@H](COP(=O)([O-])OP(=O)(O)OC[C@H]3O[C@@H](n4cnc5c(N)ncnc54)[C@H](O)[C@@H]3O)[C@@H](O)[C@H]2O)c1 [Nicotinamide adenine dinucleotide (NAD)],–
–,164.8 Å²,O=C(O)c1ccc[n+]([C@@H]2O[C@H](COP(=O)(O)O)[C@@H](O)[C@H]2O)c1 [Nicotinate D-ribonucleotide],–
298.79 Å²,299.4 Å²,CCCCCCCC/C=C\CCCCCCCC(=O)SCCNC(=O)CCNC(=O)[C@H](O)C(C)(C)COP(=O)(O)OP(=O)(O)OC[C@H]1O[C@@H](n2cnc3c(N)ncnc32)[C@H](O)[C@@H]1OP(=O)(O)O [Oleoyl-CoA],–
141.49 Å²,144.7 Å²,CC(C)(CO)[C@@H](O)C(=O)NCCCO [Pantothenol],–
143.33 Å²,–,CCCCCCCCC(=O)O [Pelargonic acid],–
162.72 Å²,–,CCCCCCCCCCCCCCC(=O)O [Pentadecanoic Acid],–

# The next lines start with the compound.
SMILES,collision cross section (N2) ([M-H]-),collision cross section (N2) ([M+H]+),further results
CC(C)=CCC[C@@H](C)[C@H]1CC[C@H]2[C@@H]3CC=C4C[C@@H](O)CC[C@]4(C)[C@H]3CC[C@]12C [Desmosterol],210.05 Å²,–,collision cross section (N2) ([M+H-H2O]+): 199.4 Å²
Cc1cc2nc[nH]c2cc1C [Dimethylbenzimidazole],127.73 Å²,129.9 Å²,–
O=CNc1ccccc1C(=O)O [Formylanthranilic acid],127.28 Å²,–,collision cross section (N2) ([M+H-H2O]+): 125.7 Å²
N[C@@H](CCC(=O)N[C@@H](CS)C(=O)O)C(=O)O [Gamma-Glutamylcysteine],–,157.7 Å²,–
O=C(O)c1cc(O)ccc1O [Gentisic acid],122.67 Å²,–,–
CC(C)=CCC/C(C)=C/COP(=O)(O)OP(=O)(O)O [Geranyl diphosphate],–,–,collision cross section (N2) ([M-H2O-H]-): 161.5 Å²
O=C(O)CCCC(=O)O [Glutaric acid],120.08 Å²,–,–
CC(C)C[C@H](NC(=O)CN)C(=O)O [Glycyl-L-leucine],142.07 Å²,149.5 Å²,–
NCC(=O)N1CCCC1C(=O)O (centres undefined) [Glycylproline],134.59 Å²,136.4 Å²,–
O=C(O)Cc1cc(O)ccc1O [Homogentisic acid],–,–,collision cross section (N2) ([M+H-H2O]+): 135.9 Å²
CN(C)CCc1ccc(O)cc1 [Hordenine],143.21 Å²,137.8 Å²,–
CC(C)C[C@H](O)C(=O)O [Hydroxyisocaproic acid],126.06 Å²,–,–
O=C(O)/C=C/c1c[nH]c2ccccc12 [Indole-3-acrylic acid],134.53 Å²,–,–
O=C(O)C(=O)Cc1c[nH]c2ccccc12 [Indole-3-pyruvic acid],138.82 Å²,–,–
N[C@@H](CC(=O)O)C(=O)N[C@@H](Cc1ccccc1)C(=O)O [L-Aspartyl-L-phenylalanine],–,164.9 Å²,collision cross section (N2) ([M+Na-2H]-): 162.34 Å²
NCCC(=O)N[C@@H](Cc1cnc[nH]1)C(=O)O [L-Carnosine],149.72 Å²,151 Å²,–
NC(=O)NCCC[C@H](N)C(=O)O [L-Citrulline],–,138 Å²,–
N[C@@H](CCSC[C@H](N)C(=O)O)C(=O)O [L-Cystathionine],139.51 Å²,147 Å²,–
O=C1O[C@H]([C@@H](O)CO)[C@H](O)[C@@H]1O [L-Gulonic gamma-lactone],131.6 Å²,–,collision cross section (N2) ([M+Na]+): 140.6 Å²
Nc1ccccc1C(=O)C[C@H](N)C(=O)O [L-Kynurenine],–,149.1 Å²,–
O=C(O)[C@@H]1CCCCN1 [L-Pipecolic acid],126.71 Å²,127.4 Å²,–
O=C1CC[C@@H](C(=O)O)N1 [L-Pyroglutamic acid],–,130.6 Å²,–
N[C@@H](CCS(=O)(=O)O)C(=O)O [L-homocysteic acid],–,140.3 Å²,collision cross section (N2) ([M+Na-2H]-): 132.56 Å²

SMILES,collision cross section (N2) ([M-H]-),collision cross section (N2) ([M+H]+),further results
CC(C)CCC[C@@H](C)[C@H]1CC[C@H]2C3=CC[C@H]4C[C@@H](O)CC[C@]4(C)[C@H]3CC[C@]12C [Lathosterol],–,–,collision cross section (N2) ([M+H-H2O]+): 204.5 Å²
NC(=O)CCCCC1CCSS1 (centres undefined) [Lipoamide],–,–,collision cross section (N2) ([M+Na]+): 150.5 Å²
O=P(O)(O)OC[C@H]1OC(O)[C@@H](O)[C@@H](O)[C@@H]1O (some centres undefined) [Mannose-6-phosphate],–,–,collision cross section (N2) ([M+Na]+): 155.8 Å²
"C[N+](C)(C)CCCC[C@H](N)C(=O)[O-] [N6,N6,N6-Trimethyl-L-lysine]",–,142 Å²,–
CNCCCC[C@H](N)C(=O)O [N6-Methyl-L-lysine],134.21 Å²,132.5 Å²,–
CC(=O)N[C@@H](Cc1ccc(O)cc1)C(=O)O [N-Acetyl-L-tyrosine],149.44 Å²,–,collision cross section (N2) ([M+Na]+): 154.5 Å²
CC(=O)NCCCCCN [N-Acetylcadaverine],131.77 Å²,132.9 Å²,–
CC(=O)N[C@@H]1C(O)O[C@H](CO)[C@@H](O)[C@@H]1O (some centres undefined) [N-Acetylmannosamine],–,–,collision cross section (N2) ([M+Na]+): 149.9 Å²
CC(=O)NCCc1c[nH]c2ccc(O)cc12 [N-Acetylserotonin],148.65 Å²,149.8 Å²,–
"CN(C)C(N)=NCCC[C@H](N)C(=O)O [NG,NG-dimethyl-L-arginine]",–,143.5 Å²,–
Nc1ncnc2c1ncn2[C@@H]1O[C@H](COP(=O)(O)OP(=O)(O)OC[C@H]2O[C@@H]([n+]3cccc(C(=O)O)c3)[C@H](O)[C@@H]2O)[C@@H](O)[C@H]1O [Nicotinic acid adenine dinucleotide],–,–,collision cross section (N2) ([M+2Na-3H]-): 238.49 Å²
O=C(O)CNC(=O)c1cccnc1 [Nicotinuric acid],138.08 Å²,143.6 Å²,–
N[C@@H](CCOP(=O)(O)O)C(=O)O [O-Phospho-L-homoserine],–,–,collision cross section (N2) ([M+Na]+): 141.6 Å²
O=c1nc2[nH][nH]cc-2c(=O)[nH]1 [Oxypurinol],120.1 Å²,126.7 Å²,–
CC(C)(CO)[C@@H](O)C(=O)NCCC(=O)NCCS [Pantetheine],–,–,collision cross section (N2) ([M+H-H2O]+): 164.6 Å²; collision cross section (N2) ([M+Na-2H]-): 164.94 Å²
O=C(O)C#Cc1ccccc1 [Phenylpropiolic acid],–,–,collision cross section (N2) ([M+H-H2O]+): 121.2 Å²
O=C(O)CNC(=O)CCc1ccccc1 [Phenylpropionylglycine],153.3 Å²,–,collision cross section (N2) ([M+Na]+): 145.5 Å²
O=C(O)CCCCCC(=O)O [Pimelic acid],129.29 Å²,–,–
NCc1[nH]cc(CCC(=O)O)c1CC(=O)O [Porphobilinogen],146.22 Å²,–,collision cross section (N2) ([M+Na]+): 148.1 Å²
O=C(O)C(=O)CC1(C(=O)O)C=CC(O)C=C1 (centres undefined) [Prephenate],–,–,collision cross section (N2) ([M+Na]+): 155 Å²
CCC(=O)NCC(=O)O [Propionylglycine],126.93 Å²,–,–
O=c1[nH]cc([C@@H]2O[C@H](CO)[C@@H](O)[C@H]2O)c(=O)[nH]1 [Pseudouridine],145.23 Å²,–,collision cross section (N2) ([M+Na]+): 159 Å²
Cc1ncc(COP(=O)(O)O)c(CO)c1O [Pyridoxine 5-phosphate],–,150.5 Å²,–
